Reference: US6274627A, “Conjugates of dithiocarbamate disulfides with pharmacologically active agents and uses therefor” (Medinox, Inc., priority 1999, dated 2001)
Entries after “also recorded” stand apart in the source; their conditions may differ.

How the values were obtained:
[1] = system: esterase; assay: Enzymatic hydrolysis of PDD-NSAIDs by esterase; format: in vitro ADME; conditions: for time within which the compound was decomposed into two compounds: esterase, PBS buffer, as described for compound 12
Method: The resulting solution was put in a water bath (37° C.) for 30 min and then at room temperature overnight.

[2] = system: cancer patients; conditions: cancer patients receiving adriamycin chemotherapy; cited from earlier work
[3] = iron-ICRF-187 complex, Fenton reaction; cited from earlier work
[4] = system: male Sprague-Dawley rats (stomach, gastric lesions); assay: Gastric erosions in the rat gastropathy model; format: in vivo; conditions: oral; for length of the lesions (most of the lesions): corpus of the stomach; for number of gastric lesions, dose dependence: naproxen 15 and 30 mg/kg, PDD-Naproxen 27 & 54 mg/kg (equimolar)
[5] = system: Lewis male rats (M. tuberculosis adjuvant-induced arthritis); assay: Chronic inflammation: rat adjuvant arthritis model; format: in vivo; conditions: for reduction of swelling compared to control by day 15: oral high doses: naproxen 10 mg/kg, days 5-8 and 11-14
Method: Thus, paw volume increases (measured with a Plethysmometer) are reported as a function of time, and were measured in the injected feet of Lewis male rats in which arthritis was induced by intradermel injection of adjuvant into the footpad.
NSAIDs are useful in both chronic and acute inflammatory conditions. Efficacy in chronic inflammation can be estimated using the rat adjuvant arthritis model (Blackham et al. supra). In this model Lewis male rats (175-250 g) were injected intradermally in the footpad with M. tuberculosis powder suspended in mineral oil at 5 mg/ml. Progressive swelling of the uninjected paw and ankle joint between days 11 and 15 was measured by plethysmometry.

[6] = system: male Sprague-Dawley rats (carrageenan-injected paw); assay: Acute inflammation: rat carrageenan-induced hindlimb edema model; format: in vivo
Method: Efficacy of NSAIDs in acute inflammation can be estimated by using intraplantar injection of carrageenan in the rat. Male Sprague-Dawley rats (200-250 g) were injected intradermally in the footpad with 50 μl of a 1% carrageenan solution in PBS. Swelling of the injected paw was measured at 2, 3, 5 & 7 hours using a plethysmometer.

[7] = Plasma pharmacokinetics of naproxen following oral administration of PDD-Naproxen or naproxen in rats
[8] = system: gastrointestinal toxicity; conditions: in vivo; cited from earlier work
[9] = system: COX-2; conditions: cited from earlier work
[10] = system: nuclear factor kappa B; conditions: intact cells; cited from earlier work
[11] = PDD-Naproxen (NOX-319) 18 mg/kg

## CC(C)Cc1ccc(C(C)C(=O)OCCCOC(=O)[C@@H]2CCCN2C(=S)SSC(=S)N2CCC[C@H]2C(=O)OCCCOC(=O)C(C)c2ccc(CC(C)C)cc2)cc1 (stereo partly shown) [Compound 16]
[1]
  time within which the compound was decomposed into two compounds: ≤ 5 h

## CC(C(=O)OCCCOC(=O)[C@@H]1CCCN1C(=S)SSC(=S)N1CCC[C@H]1C(=O)OCCCOC(=O)C(C)c1cccc(C(=O)c2ccccc2)c1)c1cccc(C(=O)c2ccccc2)c1 (stereo partly shown) [Compound 20]
[1]
  time within which the compound was decomposed into two compounds: ≤ 5 h

## COc1ccc2c(c1)c(CC(=O)OCCCOC(=O)[C@@H]1CCCN1C(=S)SSC(=S)N1CCC[C@H]1C(=O)OCCCOC(=O)Cc1c(C)n(C(=O)c3ccc(Cl)cc3)c3ccc(OC)cc13)c(C)n2C(=O)c1ccc(Cl)cc1 [Compound 24]
[1]
  time within which the compound was decomposed into two compounds: ≤ 5 h

## C[C@@H](CN1CC(=O)NC(=O)C1)N1CC(=O)NC(=O)C1 [ICRF-187]
[2]
  removal of iron from the anthracycline-iron complex, preventing cardiac toxicity: effective for the removal of iron from the anthracycline-iron complex, therefore preventing the cardiac toxicity
[3]
  promotion of hydroxyl radical generation: very effective at promoting hydroxyl radical generation

## COc1ccc2cc([C@H](C)C(=O)O)ccc2c1 [Naproxen, (S)-(+)-methoxy-α-methyl-2-naphthaleneacetic acid, reference compound]
[4]
  length of the lesions (most of the lesions): less than 2 mm
[4]; 3 h
  number of gastric lesions, dose dependence: dose-related number of lesions
[5]; [11]
  reduction of swelling compared to control by day 15: approximately 70%

## COc1ccc2cc(C(C)C(=O)OCCCOC(=O)C3CCCN3C(=S)SSC(=S)N3CCCC3C(=O)OCCCOC(=O)C(C)c3ccc4cc(OC)ccc4c3)ccc2c1 (stereo not shown) [PDD-Naproxen]
[1]; 33.3 units esterase in PBS buffer, 37° C. for 30 min, then room temperature overnight
  decomposition by esterase: decomposed into two compounds
[4]; relative to naproxen
  gastric safety / tendency to cause gastric erosions, overall: has the ability to reduce the number of erosions in the corpus of the stomach; also recorded: tendency to cause gastric erosions is reduced; also recorded: improved gastric safety
[4]; PDD-Naproxen 27 mg/kg vs naproxen 15 mg/kg, 6 animals in each group
  number of gastric erosions, low dose: fewer erosions than the low dose of naproxen, but statistical significance was not achieved
[4]; PDD-Naproxen 54 mg/kg vs naproxen 30 mg/kg, 3 h
  number of gastric lesions, high dose: significantly fewer lesions than the high dose naproxen group (ANOVA; p<0.005)
[4]
  length of the lesions (most of the lesions): less than 2 mm
[4]; 3 h
  number of gastric lesions, dose dependence: dose-related number of lesions
[6]; oral 1 h before carrageenan, naproxen 10 mg/kg or PDD-Naproxen 18 mg/kg (equimolar)
  reduction in paw swelling: reduced inflammation significantly at 2 and 3 hours, but started to wear off by 5 hours
[6]; oral, carrageenan model
  acute antiinflammatory activity, overall: orally active in rats, but slightly less effective vs acute inflammation than the parent drug; also recorded: antiinflammatory activity similar to naproxen; also recorded: alleviation of acute inflammation
[5]; [11]
  reduction of swelling compared to control by day 15: approximately 70%
[5]; oral, equimolar doses, vs naproxen
  chronic antiinflammatory effect, overall: antiinflammatory activity similar to naproxen; also recorded: antiinflammatory effects equal to those of naproxen; also recorded: effectiveness of PDD-Naproxen in the treatment of adjuvant-induced arthritis
[5]; oral, naproxen 1 mg/kg, PDD-Naproxen (NOX-319) 1.8 mg/kg
  effect on swelling by day 15, lower doses: slight effect by day 15
[5]; oral, naproxen 10 mg/kg, PDD-Naproxen (NOX-319) 18 mg/kg
  reduction of swelling on days 13 through 15, high doses: comparable reduction of swelling
[7]; oral or IV, vs naproxen itself
  naproxen pharmacokinetic profile, overall: better naproxen pharmacokinetic profiles than naproxen itself
[7]; oral, PDD-Naproxen vs naproxen
  AUCinf comparison, oral: no significant difference

## COc1ccc2cc(CCC(C)=O)ccc2c1 [nabumetone]
[8]
  gastrointestinal toxicity relative to other NSAIDs on the market: reduced gastrointestinal toxicity
[9]
  selectivity for COX-2: marked selectivity for COX-2

## S=C(S)N1CCCC1 [pyrrolidine dithiocarbamate]
[10]
  inhibition of nuclear factor kappa B: potent inhibitors of nuclear factor kappa B
